This assay has as its target Tyrosine-protein kinase BTK (Homo sapiens, UniProt Q06187). As to the kind of experiment: TBD: TBD.

Bounds are passed on as bounds.

Sequence of Tyrosine-protein kinase BTK (Q06187 whole entry): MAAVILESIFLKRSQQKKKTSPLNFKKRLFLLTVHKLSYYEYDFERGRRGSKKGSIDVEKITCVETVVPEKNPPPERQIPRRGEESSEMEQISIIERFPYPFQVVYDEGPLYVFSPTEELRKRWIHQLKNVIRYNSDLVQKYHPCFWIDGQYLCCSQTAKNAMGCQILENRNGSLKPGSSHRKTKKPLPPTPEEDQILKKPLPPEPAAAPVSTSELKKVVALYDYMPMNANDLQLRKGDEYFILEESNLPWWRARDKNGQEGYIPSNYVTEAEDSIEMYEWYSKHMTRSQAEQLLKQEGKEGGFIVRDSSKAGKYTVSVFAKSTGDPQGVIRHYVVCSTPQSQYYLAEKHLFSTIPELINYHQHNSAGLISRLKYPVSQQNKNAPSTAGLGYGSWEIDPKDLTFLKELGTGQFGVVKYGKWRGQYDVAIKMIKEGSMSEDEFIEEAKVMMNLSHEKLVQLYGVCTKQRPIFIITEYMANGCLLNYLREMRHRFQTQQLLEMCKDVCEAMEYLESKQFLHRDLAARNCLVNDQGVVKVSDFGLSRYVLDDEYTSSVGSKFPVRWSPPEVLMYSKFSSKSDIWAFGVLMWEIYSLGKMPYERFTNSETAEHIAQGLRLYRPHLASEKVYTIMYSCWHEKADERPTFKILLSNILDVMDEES

As for `Cc1cc(Oc2ccccc2)ccc1N1C(=O)Nc2c(C(=O)N[C@@H]3CCCOC3)sc3nccc1c23`, the IC50 turned out to be 25.1 nM. The figure for `C=CC(=O)N1CCC[C@@H](NC(=O)c2sc3nccc4c3c2NC(=O)N4c2ccc(Oc3cccnn3)cc2)C1` is greater than 1000 nM. The figure for `CN1CC(NC(=O)c2sc3nccc4c3c2NC(=O)N4c2ccc(Oc3ccccc3)cc2)CC1=O` (stereo not drawn) is 398 nM.
